{"source": "patent EP3501540A1", "about": "“MITOCHONDRIAL TRIFUNCTIONAL PROTEIN (MTP) INHIBITORS FOR USE IN THE TREATMENT OF HIGH MITOCHONDRIAL RESPIRATION (OX+) CANCERS” (UNIVERSITE DE BORDEAUX, priority 2017, dated 2019)", "key": {"A549 cells [1]": {"tested_on": "A549 cells", "test": "Incorporation of [13C]-palmitate in Krebs cycle by mass spectrometry", "assay_type": "cell-based, human", "conditions": "after 2 hours", "description": "The incorporation of palmitate in Krebs cycle was followed at the level of citrate using mass spectrometry. A549 cells grown in low glucose DMEM were washed twice with PBS and resuspended in PBS containing 2 mm [U-13C]palmitate with (10 mm) glucose.\nThe cells were incubated for 2 h at 27 °C before fast filtration preparation of the samples for mass spectrometry analysis. Metabolites were analyzed by ionic-exchange chromatography coupled with tandem mass spectrometry (IC-MS/MS) using the method described by Bolten et al. Retention time on the column and multiple reaction monitoring (MRM) transition of each analyzed metabolite are known by the one skilled in the art.\nThe ^13C mass isotopomer distribution of intracellular metabolites was determined from relevant isotopic clusters in the IC-MS/MS analysis, according to Kiefer et al. ^13C mass isotopomer distribution measurements were performed using a triple quadrupole mass spectrometer (4000Qtrap, Applied Biosystems). To obtain ^13C-labeling patterns (^13C isotopologues), isotopic clusters were corrected for the natural abundance of isotopes other than 13C, using the in-house software IsoCor (available at MetaSys)."}, "[2]": {"tested_on": "respiratory chain complex I", "test": "Complex I enzymatic activity assay (spectrophotometric)", "assay_type": "biochemical, human", "conditions": "A549 cells: 500 µM Trimetazidine 48H; cell homogenate: 100 µM palmitoyl-Coa, 10 min incubation", "description": "Enzymatic activities were measured spectrophotometrically, in homogenate of cells using the following reaction media: Complex I - 50mM potassium phosphate buffer, 100µM Decylubiquinone. The reaction was started by the addition of 100µM NADH and carried out at 37°C for 15 min in 340nm. After the stabilization of the signal was added 12,5µM Rotenone. Complex II - 25mM potassium phosphate buffer, 1mM KCN, 100µM ATP, 50µM DCPIP, 20mM succinate. The reaction was started by the addition of 100µM decylubiquinone and carried out at 37°C for 15 min in 660nm. Complex III - 100mM potassium phosphate buffer, 50µM cytochrome c, 250µM EDTA. The reaction was started by the addition of 100µM decylubiquinol and carried out at 37°C for 15 min in 550nm. After the stabilization of the signal was added 12,5µg/ml antimycin A. Complex IV - 100uM reduced cytochrome C in 50mM potassium phosphate buffer. The reaction was started by the addition of homogenate of cells and carried out at 37°C for 15 min in 550nm."}, "H460 cells": {"tested_on": "H460 cells", "test": "Mass spectrometry lipidomic analysis of cells", "assay_type": "cell-based, human", "conditions": "48 hours", "description": "(§1) Extracted samples were dissolved in 100 µL CHC13; 15 µL was injected for analysis. LC separation was achieved using a Bio-Bond 5U C4 column (Dikma). The LC solvents were as follows: buffer A, 95:5 H2O:methanol + 0.03% NH4OH; buffer B, 60:35:5 isopropanol:methanol:H2O + 0.03% NH4OH. A typical LC run consisted of the following for 70 min after injection: 0.1 mL/min 100% buffer A for 5 min, 0.4 mL/min linear gradient from 20% buffer B to 100% buffer B over 50 min, 0.5 mL/min 100% buffer B for 8 min and equilibration with 0.5 mL/min 100% buffer A for 7 min. FFA analysis was performed using a Thermo Scientific Q Exactive Plus fitted with a heated electrospray ionization source. The MS source parameters were 4 kV spray voltage, with a probe temperature of 437.5 °C and capillary temperature of 268.75 °C. Full-scan MS data was collected with a resolution of 70 k, AGC target 1 × 106, maximum (max) injection time of 100 ms and a scan range of 150-2,000 m/z. […] Extracted ion chromatograms for each FFA were generated using a m/z ± 0.01 mass window around the calculated exact mass (i.e., palmitic acid, calculated exact mass for M-H is 255.2330, and the extracted ion chromatogram was 255.22-255.24). Quantification of the FFAs was performed by measuring the area under the peak and dividing this number by the area under the peak for [^13C16]palmitate. […]"}, "A549 cells [3]": {"tested_on": "A549 cells", "test": "Mass spectrometry lipidomic analysis of cells", "assay_type": "cell-based, human", "conditions": "inside A549 cells", "description": "as §1"}, "Complex I subunits": {"tested_on": "Complex I subunits", "test": "Quantitative proteome analysis of complex I subunits", "assay_type": "cell-based, human", "conditions": "A549 cells"}, "H460 (OX-) cells": {"tested_on": "H460 (OX-) cells", "test": "Sulphorodamine B viability assay", "assay_type": "cell-based, human", "conditions": "H460 (OX-) cells in vitro", "description": "A549_LUC and H460_LUC, human lung cancer cells, were stably transfected with luciferase (pRRLsin-MND-Luc-WPRE). The cells were maintained in DMEM medium (Gibco) 11885-084 and 11965-092 respectively, supplemented with 10% fetal bovine serum (FBS), pH 7.4 at 37°C in a humidified incubation chamber with 5% CO2. Cells were sub-cultured every 2 days and used on experiments when they reached 85% confluency. Also, they were tested as luciferase positive using direct application of 2 mL of a 150 mg/ml solution of luciferine (Firefly Luciferin, Caliper Lifescience Corp, USA), followed by immediate bioluminescent imaging using the photonIMAGER™ optima system.\nBriefly, cells were seeded in 96-well plates and medium was changed after 24 h, then Test Reagent was added on top of the cell wells and incubated for up to 72h. The viability assay was performed using Sulforhodamine B colorimetric assay for viability assay following the protocol described by Vanicha Vichai & Kanyawim Kirtikara."}, "A549 (OX+) cells": {"tested_on": "A549 (OX+) cells", "test": "NAD/NADH determination", "assay_type": "cell-based, human", "conditions": "500µM for 48H", "description": "The NAD/NADH was measure using the NAD/NADH Colorimetric assay Kit (abcam), according to the manufacturer's instructions. At 25°C absorbance was measured at 450 nm and the value used to calculate the ratio. The assay was normalized to cell number."}, "A549 cells [4]": {"tested_on": "A549 cells", "test": "ATP measurement (CellTiter-Glo)", "assay_type": "cell-based, human", "conditions": "500µM for 48H", "description": "The ATP content was performed using the The CellTiter-Glo® Luminescent Cell Viability Assay (Promega) folowing manufacturer's instructions. Luminescence was read on a spectramax M4 Multi-Mode Microplate Reader (Molecular Devices) and values were calculated based on an ATP standard curve. The assay was normalized to cell number."}}, "data": [{"smiles": "COc1ccc(CN2CCNCC2)c(OC)c1OC", "note": "[Trimetazidine, 1-(2,3,4-trimethoxybenzyl)piperazine]", "values": [{"measurement": "incorporation of [^13C]-palmitate in the Krebs cycle ([^13C]citrate isotopomers)", "setting": "A549 cells [1]", "value": "significant reduction"}, {"measurement": "respiratory chain complex I activity", "setting": "[2]", "value": "inhibition"}, {"measurement": "accumulation of unprocessed fatty-acids", "setting": "H460 cells", "value": "not"}, {"measurement": "accumulation of unprocessed fatty-acids", "setting": "A549 cells [3]", "value": "accumulation"}, {"measurement": "content of 15 Complex I subunits", "setting": "Complex I subunits", "value": "significant reduction"}, {"measurement": "Complex I intermediate-associated protein 30 (CIA30; NDUFAF1)", "setting": "Complex I subunits; after 4 hours of treatment", "value": "completely degraded"}, {"measurement": "cell viability", "setting": "H460 (OX-) cells", "value": "no effect"}, {"measurement": "NADH redox state (NAD+/NADH ratio)", "setting": "A549 (OX+) cells", "value": "altered"}, {"measurement": "cellular ATP content", "setting": "A549 cells [4]", "value": "altered"}]}]}
